Molecular target: Neuraminidase (Influenza A virus (A/Puerto Rico/8/1934(H1N1)), UniProt P03468, H274Y)
Assay: Inhibition of influenza A virus H1N1 neuraminidase H274Y mutant

For `C[C@@H]1C[C@H](C)C(=O)[C@@H]2O[C@@H]2[C@@H]2[C@@H](O)[C@@H]3OC4=C(C(=O)O[C@@]42C[C@H]3C)C1=O`, the IC50 was greater than 44.2 µM.
